Reference: patent publication US9175260B2, “Early mesoderm cells, a stable population of mesendoderm cells that has utility for generation of endoderm and mesoderm lineages and multipotent migratory cells (MMC)” (TheUniversity of Georgia Research Foundation, Inc., priority 2007, dated 2015)

Assays:
Type in all cases: cell-based, human
hESCs (BG01) [1] = assay: Mesendoderm generation from hESCs with BIO in defined media (Q-PCR, immunostaining); conditions: BIO 2 μM
Experimental: hESCs (BG01) were plated as per the conditions specified in Example 1 in defined media. After ˜16-24 hours, BIO (2 μM) was added to cultures.

hESCs (BG02) = assay: BIO added to hESCs grown in MEF-CM (immunostaining)
Experimental: hESCs (BG02) grown in MEF-CM on Matrigel coated plates, were passaged in MEF-CM plus BIO (2 μM) over 4 days.

hESCs (BG01) [2] = assay: Mesendoderm generation from hESCs with Wnt3a in defined media (Q-PCR, immunostaining); conditions: Wnt3a 25 ng/ml
Experimental: hESCs (BG01) were plated as per the conditions specified in Example 1 in defined media. After ˜16-24 hours, human Wnt3a (25 ng/ml; R&D Systems) was added to cultures.

[3] = tested on: cells passaged in BIO/SB431542 (MMCs); assay: Differentiation of MMCs to endoderm with Activin A after removal of BIO/SB431542 (Q-PCR); conditions: 6 passages in BIO/SB431542, then Activin A to 100 ng/ml without IGF-I, heregulin; 4 day period
Excerpt: We consider these cells to be pre-mesoderm and pre-endoderm but no longer hESCs. This raised the possibility that these cells retained a multipotent differentiation potential that could be manifested following removal of BIO/SB431542 and by addition of cell differentiation factors. To test the possibility that the cells in BIO/SB431542-containing media could be further differentiated into endoderm, we grew cells for 6 passages in BIO/SB431542, then removed BIO/SB431542, and IGF-I, heregulin (two activators of PI3K activity) from the media and supplemented with Activin A to 100 ng/ml. These are conditions that support differentiation of hESCs to definitive endoderm. Over a 4 day period following the switch to the endoderm differentiation conditions we observed increases in Sox17 and CXCR4 transcripts while Nanog, T and eomesodermin transcripts remained low (FIG. 32). […] We propose that the BIO/SB431542 treated cells could also be differentiated into mesoderm and perhaps other lineages (ectoderm) if exposed to the appropriate specification factors. For example, we believe that BIO/SB431542-treated cells could be converted to mesoderm cells if BIO/SB431542 was removed and BMP4 was added to the media.

hESC (BG02) = assay: Generation of definitive endoderm: BIO and SB431542 followed by high Activin A (Q-PCR); conditions: defined media minus IGF-I and Heregulin plus Activin A 100 ng/ml, 4 days, after 4 days BIO/SB431542
Experimental: hESC were taken and grown in defined media in the presence of BIO (2 μM) and SB431542 (20 μM) for 4 days. The cells were then split 1-4 into the same media or defined media minus IGF-I and heregulin and with additional Activin A (100 ng/ml) for an additional 4 days (FIG. 22). Samples (BG02) were taken every 2 days up to 8 days for Q-PCR analysis. […] This cell type persisted in the presence of BIO/SB431542.

[4] = involving an epithelial to mesenchymal transition
[5] = BIO 2 μM, 4 days, cells passaged with trypsin
[6] = BIO, cells passaged with collagenase

O=C1Nc2cc(Br)ccc2/C1=C1/Nc2ccccc2/C1=N\O [BIO, (2′Z,3′E)-6-Bromoindirubin-3′-oxime]
Snail localisation (immunostaining) (hESCs (BG01) [1]; 48 hours): accumulates in the nucleus | T/brachyury levels (immunostaining) (hESCs (BG01) [1]; 48 hours): increased | E-cadherin and Nanog (immunostaining) (hESCs (BG01) [1]; after 48 hours): downregulated | Nanog transcripts (Q-PCR) (hESCs (BG01) [1]; defined media): decreased by 48 hours | T and MixL1 mRNA levels (Q-PCR) (hESCs (BG01) [1]; defined media): increased over the first 24 hours then decreased thereon | differentiation outcome (hESCs (BG01) [1]; [4]): caused hESCs to differentiate to mesendoderm | differentiation outcome (hESCs (BG02); BIO 2 μM): promotes an epithelial to mesenchymal transition and differentiation to mesendoderm | Oct4 and E-cadherin (immunostaining) (hESCs (BG02); [5]): downregulation | T/Brachyury (immunostaining) (hESCs (BG02); [5]): upregulation | Nanog and E-cadherin (immunostaining) (hESCs (BG02); [6]): downregulation | T/Brachyury (immunostaining) (hESCs (BG02); [6]): upregulation

B1: Wnt3a: canonical Wnt signaling molecule; human Wnt3a (R&D Systems) (protein, UniProt P56704 19-352, looked up)
Protein Wnt-3a: SYPIWWSLAVGPQYSSLGSQPILCASIPGLVPKQLRFCRNYVEIMPSVAEGIKIGIQECQHQFRGRRWNCTTVHDSLAIFGPVLDKATRESAFVHAIASAGVAFAVTRSCAEGTAAICGCSSRHQGSPGKGWKWGGCSEDIEFGGMVSREFADARENRPDARSAMNRHNNEAGRQAIASHMHLKCKCHGLSGSCEVKTCWWSQPDFRAIGDFLKDKYDSASEMVVEKHRESRGWVETLRPRYTYFKVPTERDLVYYEASPNFCEPNPETGSFGTRDRTCNVSSHGIDGCDLLCCGRGHNARAERRREKCRCVFHWCCYVSCQECTRVYDVHTCK
T/brachyury levels (immunostaining) (hESCs (BG01) [2]; 48 hours): increased | β-catenin and Snail localisation (immunostaining) (hESCs (BG01) [2]; 48 hours): accumulate in the nucleus | E-cadherin and Nanog (immunostaining) (hESCs (BG01) [2]; after 48 hours): downregulated | Nanog transcripts (Q-PCR) (hESCs (BG01) [2]; defined media): decreased by 48 hours | T, Eomes and MixL1 mRNA levels (Q-PCR) (hESCs (BG01) [2]; defined media): increased over 1-2 days, then decreased by day 5 | differentiation outcome (hESCs (BG01) [2]; [4]): caused hESCs to differentiate to mesendoderm

B2: Activin A: growth factor (R&D Systems), used at high levels (100 ng/ml) to produce definitive endoderm (protein, UniProt P08476 311-426, looked up)
Inhibin beta A chain: GLECDGKVNICCKKQFFVSFKDIGWNDWIIAPSGYHANYCEGECPSHIAGTSGSSLSFHSTVINHYRMRGHSPFANLKSCCVPTKLRPMSMLYYDDGQNIIKKDIQNMIVEECGCS
Nanog, T and eomesodermin transcripts (Q-PCR) [3]: remained low | Sox17 and CXCR4 transcripts (Q-PCR) [3]: increases | differentiation after switch to Activin A (Q-PCR: Sox17, CXCR4 upregulated, FoxF1 absent) (hESC (BG02)): further differentiated into DE
